# Read-outs that look alike come from different tables or passages of the source.
# Tests used:
# SF-539 = assay: NCI in vitro anti-cancer activity, CNS Cancer; format: cell-based
# TK-10 = assay: NCI in vitro anti-cancer activity, Renal Cancer; format: cell-based
# Tg DHFR = molecular target: T1, Tg DHFR (Toxoplasma gondii, UniProt Q07422); assay: biochemical; format: biochemical
# T1 sequence (Q07422 1-610): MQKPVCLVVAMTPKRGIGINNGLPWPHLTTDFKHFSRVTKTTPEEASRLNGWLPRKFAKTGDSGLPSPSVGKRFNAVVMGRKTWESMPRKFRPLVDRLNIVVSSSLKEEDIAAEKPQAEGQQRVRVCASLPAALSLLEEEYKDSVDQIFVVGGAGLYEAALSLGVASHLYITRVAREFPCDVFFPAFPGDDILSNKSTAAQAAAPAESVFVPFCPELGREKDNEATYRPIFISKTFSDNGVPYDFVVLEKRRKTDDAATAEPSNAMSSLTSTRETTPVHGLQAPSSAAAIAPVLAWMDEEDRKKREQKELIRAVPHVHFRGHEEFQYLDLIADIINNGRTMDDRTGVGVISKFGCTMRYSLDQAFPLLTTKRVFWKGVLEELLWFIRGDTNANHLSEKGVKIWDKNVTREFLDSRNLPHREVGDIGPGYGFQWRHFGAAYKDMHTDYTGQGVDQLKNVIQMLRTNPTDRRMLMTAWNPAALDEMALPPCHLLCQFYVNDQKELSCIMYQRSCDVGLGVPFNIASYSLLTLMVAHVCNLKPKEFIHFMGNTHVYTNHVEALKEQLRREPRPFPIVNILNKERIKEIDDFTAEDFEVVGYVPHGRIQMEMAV
# Experimental: (§1) The selectivity ratio is a measure of the selectivity of a compound for Pc DHFR or Tg DHFR and is expressed as the IC50 value of the DHFR from rate liver (RL) divided by the IC50 value of either the Pc DHFR or the Tg DHFR, depending on which organism the compounds are being tested against. For example, the selectivity ratio of a compound is calculated by the following formula: [formula]
# UO-31 = assay: NCI in vitro anti-cancer activity, Renal Cancer; format: cell-based
# Pc DHFR = molecular target: T2, Pc DHFR (Pneumocystis carinii, UniProt P16184); assay: biochemical
# T2 sequence (P16184 1-206): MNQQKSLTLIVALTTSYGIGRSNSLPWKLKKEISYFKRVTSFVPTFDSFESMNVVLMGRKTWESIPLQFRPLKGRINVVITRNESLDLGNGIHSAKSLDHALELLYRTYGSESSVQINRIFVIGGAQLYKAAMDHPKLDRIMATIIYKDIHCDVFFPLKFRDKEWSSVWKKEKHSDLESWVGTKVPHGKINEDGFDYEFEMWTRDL
# MDA-MB-231/ATCC = assay: NCI in vitro anti-cancer activity, Breast Cancer; format: cell-based
# UACC-62 = assay: NCI in vitro anti-cancer activity, Melanoma; format: cell-based
# 786-0 = assay: NCI in vitro anti-cancer activity, Renal Cancer; format: cell-based
# SF-295 = assay: NCI in vitro anti-cancer activity, CNS Cancer; format: cell-based
# T-47D = assay: NCI in vitro anti-cancer activity, Breast Cancer; format: cell-based
# MCF7 = assay: NCI in vitro anti-cancer activity, Breast Cancer; format: cell-based
# SNB-19 = assay: NCI in vitro anti-cancer activity, CNS Cancer; format: cell-based
# MDA-N = assay: NCI in vitro anti-cancer activity, Breast Cancer; format: cell-based
# ACHN = assay: NCI in vitro anti-cancer activity, Renal Cancer; format: cell-based
# U251 = assay: NCI in vitro anti-cancer activity, CNS Cancer; format: cell-based
# LOX IMVI = assay: NCI in vitro anti-cancer activity, Melanoma; format: cell-based
# BT-549 = assay: NCI in vitro anti-cancer activity, Breast Cancer; format: cell-based
# IGROV1 = assay: NCI in vitro anti-cancer activity, Ovarian Cancer; format: cell-based
# RXF 393 = assay: NCI in vitro anti-cancer activity, Renal Cancer; format: cell-based
# SK-OV-3 = assay: NCI in vitro anti-cancer activity, Ovarian Cancer; format: cell-based
# HOP-92 = format: cell-based
# M14 = assay: NCI in vitro anti-cancer activity, Melanoma; format: cell-based
# SR = assay: NCI in vitro anti-cancer activity, Leukemia; format: cell-based
# COLO 205 = assay: NCI in vitro anti-cancer activity, Colon Cancer; format: cell-based
# SK-MEL-28 = assay: NCI in vitro anti-cancer activity, Melanoma; format: cell-based; details: Homo sapiens; SK-MEL-28, Melanoma
# MDA-MB-435 = assay: NCI in vitro anti-cancer activity, Breast Cancer; format: cell-based
# NCI-H522 = format: cell-based
# RL DHFR = molecular target: T3, RL DHFR (Rattus norvegicus, UniProt Q920D2); assay: Inhibition of DHFR from rat liver; format: biochemical; details: Table 26; read-out: Inhibitory Concentrations (IC50) RL DHFR
# T3 construct: Toxoplasmosis gondii (Tg) and rat liver (RL); from tissue; host or cells: rat liver
# T3 sequence (Q920D2 1-187): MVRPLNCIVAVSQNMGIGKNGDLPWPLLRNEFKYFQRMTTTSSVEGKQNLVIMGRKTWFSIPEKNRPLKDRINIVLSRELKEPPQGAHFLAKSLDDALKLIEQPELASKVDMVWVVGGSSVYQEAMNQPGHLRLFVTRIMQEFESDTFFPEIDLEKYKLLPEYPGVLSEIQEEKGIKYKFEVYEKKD
# Experimental: as §1
smiles,measurement,setting,value
Nc1nc(N)c2c(CNc3ccc(C(=O)N[C@@H](CCC(=O)O)C(=O)O)cc3)c[nH]c2n1 [Compound 9],GI50,SF-539; Homo sapiens,< 0.01 µM
same,GI50,"TK-10; Homo sapiens, TK-10, Renal Cancer",> 100 µM
same,IC50,Tg DHFR,0.21 µM
same,GI50,"UO-31; Homo sapiens, UO-31, Renal Cancer",< 0.01 µM
same,IC50,Pc DHFR,0.038 µM
same,GI50,"MDA-MB-231/ATCC; Homo sapiens, Breast Cancer",> 100 µM
same,GI50,"UACC-62; Homo sapiens, UACC-62, Melanoma",< 0.01 µM
same,GI50,"786-0; Homo sapiens, 786-0, Renal Cancer",< 0.01 µM
same,GI50,"SF-295; Homo sapiens, SF-295, CNS Cancer",< 0.01 µM
same,GI50,"T-47D; Homo sapiens, T47D, Breast Cancer",> 100 µM
same,GI50,"MCF7; Homo sapiens, MCF7, Breast Cancer",< 0.01 µM
same,GI50,"SNB-19; Homo sapiens, SNB-19, CNS Cancer",> 100 µM
same,GI50,"MDA-N; Homo sapiens, Breast Cancer",< 0.01 µM
same,GI50,"ACHN; Homo sapiens, Renal Cancer",< 0.01 µM
same,GI50,"U251; Homo sapiens, U-251, U251, CNS Cancer",< 0.01 µM
same,GI50,"LOX IMVI; Homo sapiens, Melanoma",< 0.01 µM
same,GI50,"BT-549; Homo sapiens, BT-549, Breast Cancer",> 100 µM
same,GI50,"IGROV1; Homo sapiens, IGROV-1, IGROV1, Ovarian Cancer",< 0.01 µM
same,GI50,"RXF 393; Homo sapiens, RXF 393, Renal Cancer",> 100 µM
same,GI50,"SK-OV-3; Homo sapiens, SK-OV-3, Ovarian Cancer",> 100 µM
same,GI50,"HOP-92; Homo sapiens, HOP-92, Non-Small Cell Lung Cancer",8.4 µM
same,GI50,"M14; Homo sapiens, M14, Melanoma",< 0.01 µM
same,GI50,"SR; Homo sapiens, Leukemia",> 100 µM
same,GI50,"COLO 205; Homo sapiens, COLO 205, Colon Cancer",> 100 µM
same,GI50,SK-MEL-28,> 100 µM
same,GI50,MDA-MB-435; Homo sapiens,0.687 µM
same,GI50,"NCI-H522; Homo sapiens, NCI-H522, Non-Small Cell Lung Cancer",> 100 µM
COc1cc(CCc2c[nH]c3nc(N)nc(C)c23)cc(OC)c1OC [Compound 113-154A],GI50,"SF-539; Table 29, CNS Cancer",20.4 µM
same,GI50,"TK-10; Table 29, Renal Cancer, TK-10",58.9 µM
same,Selectivity Ratio: RL DHFR/Tg,Tg DHFR; Table 26,0.23
same,IC50,"Tg DHFR; Table 26, read-out: Inhibitory Concentrations (IC50) Tg DHFR",10.2 µM
same,GI50,"UO-31; Table 29, Renal Cancer, UO-31",34 µM
same,Selectivity Ratio: RL DHFR/Pc DHFR,Pc DHFR; Table 26,0.04
same,IC50,"Pc DHFR; Table 26, read-out: Inhibitory Concentrations (IC50) Pc DHFR",55 µM
same,GI50,"MDA-MB-231/ATCC; Table 29, Breast Cancer",37.3 µM
same,GI50,"UACC-62; Table 29, Melanoma, UACC-62",19.6 µM
same,GI50,"786-0; Table 29, Renal Cancer, 786-0",32.8 µM
same,GI50,"SF-295; Table 29, CNS Cancer, SF-295",36.6 µM
same,GI50,"T-47D; Table 29, Breast Cancer",60.2 µM
same,GI50,"MCF7; Table 29, Breast Cancer, MCF7",27.2 µM
same,GI50,"SNB-19; Table 29, CNS Cancer, SNB-19",67.4 µM
same,GI50,"MDA-N; Table 29, Breast Cancer",35.3 µM
same,GI50,"ACHN; Table 29, Renal Cancer",35.7 µM
same,GI50,"U251; Table 29, CNS Cancer, U251",23.4 µM
same,GI50,"LOX IMVI; Table 29, Melanoma",30 µM
same,GI50,"BT-549; Table 29, Breast Cancer, BT-549",19.3 µM
same,GI50,"IGROV1; Table 29, Ovarian Cancer, IGROV1",17.3 µM
same,GI50,"RXF 393; Table 29, Renal Cancer, RXF 393",32.7 µM
same,GI50,"SK-OV-3; Table 29, Ovarian Cancer, SK-OV-3",88.8 µM
same,GI50,"HOP-92; Table 29, Non-Small Cell Lung Cancer, HOP-92",18.2 µM
same,GI50,"M14; Table 29, Melanoma, M14",29.8 µM
same,GI50,"SR; Table 29, Leukemia",32.5 µM
same,GI50,"COLO 205; Table 29, Colon Cancer, COLO 205",48.2 µM
same,GI50,"MDA-MB-435; Table 29, Breast Cancer",39.2 µM
same,IC50,RL DHFR,2.3 µM
same,GI50,"NCI-H522; Table 29, Non-Small Cell Lung Cancer, NCI-H522",25 µM

# Source: patent US6962920B2, “Pyrimidine derivatives and methods of making and using these derivatives” (Duquesne University of the Holy Ghost, priority 1992, dated 2005)
